Measurements: patent US4740233A, “Substituted 1,2,4-triazolo[1,5-a]-pyrimidine-2-sulfonamides and compositions and methods of controlling undesired vegetation and suppressing the nitrification of ammonium nitrogen in soil” (The Dow Chemical Company, priority 1986, dated 1988)

How the values were obtained:
[1] = test system: yellow nutsedge; test: Control of aquatic plant species (paddy water); format: in vivo, Cyperus esculentus; details: Cyperus, 216 h, nine days, read-out: Percent control
Summary of the method: (§1)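 First, young plants (1-2 inch stage) were set into about 2 inches of soil. Next, pots were flooded to about 1 inch depth. Then acetone concentrate was injected into the water at varying volumes to give the intended concentration. Finally, control was assessed after nine days.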

[2] = test system: yellow foxtail; test: Preemergent control of plant species; format: in vivo, Setaria lutescens; details: Setaria, pre-emergence, 336 h; 0.25 lb/acre; read-out: percent preemergent control
Summary of the method: (§2)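 Preemergent application of aqueous emulsions at rates given in the table, uniformly over seeded greenhouse soil. Untreated (water) beds as comparison; rating after 2 weeks as reduction in growth.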

[3] = test system: rice; test: Preemergent control of plant species; format: in vivo, Oryza sativa; details: Oryza sativa, pre-emergence, 336 h; 0.25 lb/acre; read-out: percent preemergent control
Summary of the method: as §2

[4] = test system: rape; test: Preemergent control of plant species; format: in vivo, Brassica napus; details: Brassica napus, pre-emergence, 336 h; 0.25 lb/acre; read-out: percent preemergent control
Summary of the method: as §2

[5] = test system: jimsonweed; test: Preemergent control of plant species; format: in vivo, Datura stramonium; details: Datura stramonium, pre-emergence, 336 h; 0.25 lb/acre; read-out: percent preemergent control
Summary of the method: as §2

[6] = test system: cotton; test: Preemergent control of plant species; format: in vivo, Gossypium spp.; details: Gossypium hirsutum, pre-emergence, 336 h; 0.25 lb/acre; read-out: percent preemergent control
Summary of the method: as §2

[7] = test system: sprangletop; test: Control of aquatic plant species (paddy water); format: in vivo, Leptochloa filiformis; details: Leptochloa filiformis, 216 h, nine days, read-out: Percent control
Summary of the method: as §1

[8] = test system: wild oats; test: Preemergent control of plant species; format: in vivo; details: Avena fatua, pre-emergence, 336 h; 0.25 lb/acre; read-out: percent preemergent control
Summary of the method: as §2

[9] = test system: rice; test: Control of aquatic plant species (paddy water); format: in vivo, Oryza sativa; details: Oryza sativa, 216 h, nine days, read-out: Percent control
Summary of the method: as §1

[10] = test system: velvetleaf; test: Preemergent control of plant species; format: in vivo, Abutilon theophrasti; details: Abutilon theophrasti, pre-emergence, 336 h; 0.25 lb/acre; read-out: percent preemergent control
Summary of the method: as §2

[11] = test system: barnyardgrass; test: Control of aquatic plant species (paddy water); format: in vivo, Echinochloa crusgalli; details: Echinochloa crus-galli, 216 h, nine days, read-out: Percent control
Description: In testing for such utility, the plant species to be tested were transplanted into 16 oz. containers into about 2 inches of soil when they were in the 1-2 inch stage and then flooded to a depth of about 1 inch. An acetone concentrate of the chemical to be tested was then injected into the paddy water, the volume injected being varied as desired to provide the desired concentration. Percent control was evaluated nine days after application.

[12] = test system: pigweed; test: Preemergent control of plant species; format: in vivo, Amaranthus spp.; details: Amaranthus retroflexus, pre-emergence, 336 h; 0.25 lb/acre; read-out: percent preemergent control
Description: The seeds of various species of plants were planted in beds of good agricultural soil in a greenhouse. A number of compositions of the present invention, generally in the nature of an aqueous emulsion, were applied at rates listed in the table so as to deposit a predetermined amount of active ingredients uniformly throughout the surface of the bed. Another seed bed was treated only with water to serve as a control. After treatment the seed beds were maintained for two weeks under greenhouse conditions conducive for good plant growth and watered as necessary. Control refers to the reduction in growth compared to the observed results of the same untreated species.

[13] = test system: barnyardgrass; test: Preemergent control of plant species; format: in vivo, Echinochloa crusgalli; details: Echinochloa crus-galli, pre-emergence, 336 h; 0.25 lb/acre; read-out: percent preemergent control
Summary of the method: as §2

[14] = test system: crabgrass; test: Preemergent control of plant species; format: in vivo, Digitaria spp.; details: Digitaria sanguinalis, pre-emergence, 336 h; 0.25 lb/acre; read-out: percent preemergent control
Summary of the method: as §2

[15] = test system: sorghum; test: Preemergent control of plant species; format: in vivo, Sorghum vulgare; details: Sorghum, pre-emergence, 336 h; 0.25 lb/acre; read-out: percent preemergent control
Summary of the method: as §2

[16] = test system: soybean; test: Preemergent control of plant species; format: in vivo, Glycine max.; details: Glycine max, pre-emergence, 336 h; 0.25 lb/acre; read-out: percent preemergent control
Summary of the method: as §2

[17] = test system: wheat; test: Preemergent control of plant species; format: in vivo, Triticum aestivum; details: Triticum aestivum, pre-emergence, 336 h; 0.25 lb/acre; read-out: percent preemergent control
Summary of the method: as §2

[18] = test system: annual morning glory; test: Preemergent control of plant species; format: in vivo, Ipomoea spp.; details: Ipomoea, pre-emergence, 336 h; 0.25 lb/acre; read-out: percent preemergent control
Summary of the method: as §2

[19] = test system: johnson grass; test: Preemergent control of plant species; format: in vivo, Sorghum halepense; details: Sorghum halepense, pre-emergence, 336 h; 0.25 lb/acre; read-out: percent preemergent control
Summary of the method: as §2

[20] = test system: corn; test: Preemergent control of plant species; format: in vivo, Zea mays; details: Zea mays, pre-emergence, 336 h; 0.25 lb/acre; read-out: percent preemergent control
Summary of the method: as §2

[21] = test system: sugar beet; test: Preemergent control of plant species; format: in vivo, Beta saccharifera; details: Beta vulgaris, pre-emergence, 336 h; 0.25 lb/acre; read-out: percent preemergent control
Summary of the method: as §2

[22] = test system: yellow nutsedge; test: Preemergent control of plant species; format: in vivo, Cyperus esculentus; details: Cyperus, pre-emergence, 336 h; 0.25 lb/acre; read-out: percent preemergent control
Summary of the method: as §2

[23] = test system: nitrification of ammonium nitrogen; test: Suppression of nitrification of ammonium nitrogen in soil; details: 27° C.
Summary of the method: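 Soil (20 g) moistened to its 1/3 bar tension value, mixed with test chemical and incubated sealed for two weeks at 27° C. Nitrate extracted with ammonium sulfate solution and measured by nitrate-specific ion electrode; value given as % NH4-N remaining.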

Compound	pest or weed control at 280.212 g/ha [2] [%]	plant injury at 280.212 g/ha [3] [%]	plant injury at 280.212 g/ha [4] [%]	pest or weed control at 280.212 g/ha [5] [%]	plant injury at 280.212 g/ha [6] [%]	pest or weed control at 280.212 g/ha [8] [%]	pest or weed control at 280.212 g/ha [10] [%]	pest or weed control at 280.212 g/ha [12] [%]	pest or weed control at 280.212 g/ha [13] [%]	pest or weed control at 280.212 g/ha [14] [%]	plant injury at 280.212 g/ha [15] [%]	plant injury at 280.212 g/ha [16] [%]	plant injury at 280.212 g/ha [17] [%]	pest or weed control at 280.212 g/ha [18] [%]	pest or weed control at 280.212 g/ha [19] [%]	plant injury at 280.212 g/ha [20] [%]	plant injury at 280.212 g/ha [21] [%]	pest or weed control at 280.212 g/ha [22] [%]	% NH4-N Remaining After 2 Weeks Incubation ([23]; 1 ppm) [%]	% NH4-N Remaining After 2 Weeks Incubation ([23]; 0.06 ppm) [%]	further results
Cc1ccn2nc(S(=O)(=O)Nc3c(Cl)cccc3Cl)nc2n1 [Compound 143, 5-Methyl-N-(2,6-dichlorophenyl)-1,2,4-triazolo[1,5-a]pyrimidine-2-sulfonamide]	97	97	95	100	100	50	97	100	97	100	99	70	50	90	100	95	100	100	91	–	pest or weed control at 31 g/ha ([1]; 0.031 Kg/Ha): 93%; pest or weed control at 500 g/ha ([1]; 0.5 Kg/Ha): 97%; pest or weed control at 31 g/ha ([7]; 0.031 Kg/Ha): 0%; pest or weed control at 500 g/ha ([7]; 0.5 Kg/Ha): 97%; pest or weed control at 31 g/ha ([9]; 0.031 Kg/Ha): 0%; pest or weed control at 500 g/ha ([9]; 0.5 Kg/Ha): 95%; pest or weed control at 31 g/ha ([11]; 0.031 Kg/Ha): 95%; pest or weed control at 500 g/ha ([11]; 0.5 Kg/Ha): 99%; % NH4-N Remaining After 2 Weeks Incubation ([23]; 0.01 ppm): 50%; % NH4-N Remaining After 2 Weeks Incubation ([23]; 0.1 ppm): 78%; % NH4-N Remaining After 2 Weeks Incubation ([23]; 10 ppm): 100%
Cc1cc(C)n2nc(S(=O)(=O)Nc3ccccc3Br)nc2n1 [Compound 41]	30	0	80	0	40	0	10	0	80	10	20	25	0	10	35	0	80	70	87	23	pest or weed control at 1000 g/ha ([1]; 1.0 Kg/Ha): 80%; pest or weed control at 1000 g/ha ([7]; 1.0 Kg/Ha): 95%; pest or weed control at 1000 g/ha ([9]; 1.0 Kg/Ha): 97%; pest or weed control at 1000 g/ha ([11]; 1.0 Kg/Ha): 99%; % NH4-N Remaining After 2 Weeks Incubation ([23]; 0.1 ppm): 54%; % NH4-N Remaining After 2 Weeks Incubation ([23]; 10 ppm): 100%
Cc1nc2nc(S(=O)(=O)Nc3c(Cl)cccc3Cl)nn2c(C)c1C [Compound 111]	30	65	95	95	20	0	80	50	15	90	65	10	0	20	75	35	90	93	69	22	pest or weed control at 4000 g/ha ([1]; 4.0 Kg/Ha): 99%; pest or weed control at 4000 g/ha ([7]; 4.0 Kg/Ha): 80%; pest or weed control at 4000 g/ha ([9]; 4.0 Kg/Ha): 93%; pest or weed control at 4000 g/ha ([11]; 4.0 Kg/Ha): 99%; % NH4-N Remaining After 2 Weeks Incubation ([23]; 0.25 ppm): 60%; % NH4-N Remaining After 2 Weeks Incubation ([23]; 4 ppm): 92%
Cc1cc(C)n2nc(S(=O)(=O)Nc3ccccc3C(F)(F)F)nc2n1 [Compound 13, 5,7-Dimethyl-N-(2-trifluoromethylphenyl)-1,2,4-triazolo[1,5-a]pyrimidine-2-sulfonamide]	90	95	98	70	95	10	95	95	95	80	98	95	20	90	95	80	98	98	89	73	pest or weed control at 250 g/ha ([1]; 0.25 Kg/Ha): 93%; pest or weed control at 250 g/ha ([7]; 0.25 Kg/Ha): 10%; pest or weed control at 250 g/ha ([9]; 0.25 Kg/Ha): 97%; pest or weed control at 250 g/ha ([11]; 0.25 Kg/Ha): 93%; % NH4-N Remaining After 2 Weeks Incubation ([23]; 0.125 ppm): 78%; % NH4-N Remaining After 2 Weeks Incubation ([23]; 0.25 ppm): 81%; % NH4-N Remaining After 2 Weeks Incubation ([23]; 0.5 ppm): 85%
